From PMC3326641 (Journal of Medicinal Chemistry, 2012) come the findings set out here.

The target of this data set is T1, TrxR (rat liver thioredoxin reductase) (Rattus norvegicus, UniProt O89049).
T1 sequence (O89049 1-499): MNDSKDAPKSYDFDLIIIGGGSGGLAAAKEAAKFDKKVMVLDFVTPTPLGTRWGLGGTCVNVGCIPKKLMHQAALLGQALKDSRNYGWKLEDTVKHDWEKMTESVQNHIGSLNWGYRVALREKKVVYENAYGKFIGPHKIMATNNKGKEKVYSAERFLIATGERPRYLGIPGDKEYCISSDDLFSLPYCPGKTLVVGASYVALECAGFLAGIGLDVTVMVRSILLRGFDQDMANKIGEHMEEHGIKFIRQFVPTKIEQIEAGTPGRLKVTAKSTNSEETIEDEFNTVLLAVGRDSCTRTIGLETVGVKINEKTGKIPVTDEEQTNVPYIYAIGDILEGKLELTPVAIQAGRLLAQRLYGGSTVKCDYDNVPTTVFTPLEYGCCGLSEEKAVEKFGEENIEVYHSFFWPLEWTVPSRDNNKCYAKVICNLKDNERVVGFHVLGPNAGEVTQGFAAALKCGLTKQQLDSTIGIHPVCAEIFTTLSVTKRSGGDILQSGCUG
The data set can be described thus: DTNB reduction, absorbance at […] nm. The data set is classed as biochemical.

The term inhibition denotes the share of the control response that was lost under treatment. With `CC(C)(C)OC(=O)n1ccc2c[c]([Au-][P+](C3CCCCC3)(C3CCCCC3)C3CCCCC3)ccc21` [compound 4, [5-{Tricyclohexylphosphine gold(I)}-tert-butyl 1H-indole-1-carboxylate]], the inhibition at 40 µM was found to be 39%.
